# Where “and” joins values, the source holds several entries; their conditions need not be identical. Equal values may be shown once. Read-outs that look alike come from different tables or passages of the source.
# Legend:
# [1] = tested on: treatment naïve B cell lymphoma; assay: Phase 2 veterinary clinical trial, RECIST 1.1 tumour response; assay type: in vivo, dog
# Description: Superficial tumour lesions were measured with calipers, while lesions within the body were assessed by X-Ray, ultrasound, computer tomography (CT) and/or physical palpitation. Baseline Day 0 (D0) predose caliper, X-Ray, ultrasound and CT measurements where available as well as a complete physical examination were recorded.
# [2] = Blood plasma levels in pet dogs of the veterinary trial; assay type: in vivo, dog; settings: plasma, oral, 179 mg/kg bw; dog 003-001 that achieved a partial response; read-out: monepantel blood plasma level
# Description: In a Phase 2 veterinary clinical trial, monepantel was administered as tablets daily to six pet dog patients (dog identification numbers: 001-001, 001-002, 001-003, 003-001, 004-002 and 004-003) with treatment naïve B cell lymphoma at a target dose of 179 mg/kg bw. Superficial tumour lesions were measured with calipers, while lesions within the body were assessed by X-Ray, ultrasound, computer tomography (CT) and/or physical palpitation. Baseline Day 0 (D0) predose caliper, X-Ray, ultrasound and CT measurements where available as well as a complete physical examination were recorded.
# An inverse correlation between RECIST1.1 response and blood plasma levels of monepantel and monepantel sulfone was evident. The one dog (003-001) that achieved a partial response, recorded monepantel and […] of 0.1 and 6.7 μM, respectively.
# cancer = assay: Phase 1b clinical trial, RECIST1.1 by computerised tomography; assay type: in vivo, human; settings: monepantel as Zolvix daily 5 mg/kg bw
# Description: (§1) In a Phase 1 b clinical trial, monepantel administered as Zolvix daily to four human patients (PA02, PA04, PA06 and PA07) at 5 mg/kg bw provided an anticancer effect by computerised tomography (CT) scanning according to RECIST1.1 criteria. […] Evidence of mTOR pathway signalling inhibition in these patients was supported by the finding of decreased eurkaryotic translation initiation factor 4E-binding protein 1 (EIF-4EBP1) phosphorylation levels from the preparations of PBMCs from PA02, PA04 and PA06 (FIG. 1B). EIF-4EIBP1 phosphorylation levels were not assayed from preparations of PBMCs from PA07.
# [3] = tested on: ribosomal protein S6 kinase beta-1 (RPS6KB1); assay: RPS6KB1 phosphorylation levels in patients' PBMCs (mTOR signalling); assay type: in vivo, human; settings: 5 mg/kg bw daily
# [4] = tested on: eurkaryotic translation initiation factor 4E-binding protein 1 (EIF-4EBP1); assay: EIF-4EBP1 phosphorylation levels in patients' PBMCs (mTOR signalling); assay type: in vivo, human; settings: 5 mg/kg bw daily
# Description: as §1
# [5] = Blood plasma levels in human patients; assay type: in vivo; settings: monepantel as Zolvix 5 mg/kg bw daily
# Description: as §1
# Blood plasma monepantel and monepantel sulfone levels of all four patients were recorded at intervals throughout treatment (Table 2).
# SARS-CoV-2 [6] = assay type: cell-based; settings: 0.032 μM and 0.064 μM compared to 40 μM and 8 μM values, p<0.05 and <0.001
# SARS-CoV-2 [7] = assay type: cell-based; settings: VERO cells
# SARS-CoV-2 [8] = assay type: cell-based; settings: Calu-3 human cells, concentrations from 3.00 μM down to 0.013 μM
# [9] = tested on: VERO cells infected with SARS-CoV-2; assay type: cell-based; settings: approximately 5 μM MPL
# VERO cells [10] = tested on: VERO cells
# VERO cells [11] = assay: cells; settings: Chlorocebus sabaeus, 120 h, read-out: 1050 (estimated from the 8 μM and 40 μM values)
# [12] = pet dogs, monepantel tablets daily, target dose 179 mg/kg bw, one value per dog, 179 mg/kg
# [13] = six pet dogs, tablets daily, 179 mg/kg bw
# [14] = PA02, after three days of treatment
# [15] = PA04, after three days of treatment
# [16] = PA06, after three days of treatment
smiles,measurement,setting,value
"C[C@](C#N)(COc1cc(C#N)ccc1C(F)(F)F)NC(=O)c1ccc(SC(F)(F)F)cc1 [MPL, N-[(1S)-1-Cyano-2-(5-cyano-2-trifluoromethyl-phenoxy)-1-methyl-ethyl]-4-trifluoromethylsulfanyl-benzamide]",RECIST 1.1 tumour response D14 Target Lesions,[1]; [12],PR (PR = partial response)
same,RECIST 1.1 tumour response Overall,[1]; [12],PR (PR = partial response)
same,target superficial lymph node caliper measurements at D28,"[1]; pet dogs, tablets daily, 179 mg/kg bw",four of four dogs achieving stable target superficial lymph node caliper measurements
same,RECIST 1.1 responses of the six dogs at D14,[1]; [13],"One dog achieved a partial response, four dogs achieved stable disease and one dog had progressive disease"
same,anti-cancer effect at D14,[1]; [13],strong anti-cancer effect
same,concentration at 14 day,[2],100 nM
same,RECIST1.1 response by CT,cancer; patient PA07,progressive disease
same,RECIST1.1 response by CT,"cancer; patients PA02, PA04 and PA06",stable disease
same,reduction of PBMC RPS6KB1 phosphorylation levels relative to pre-treatment,"[3]; PA02, PA06 and PA07, after seven days of treatment",85.6%
same,reduction of PBMC RPS6KB1 phosphorylation levels relative to pre-treatment,[3]; [14],27.3%
same,reduction of PBMC RPS6KB1 phosphorylation levels relative to pre-treatment,[3]; [15],28.6%
same,reduction of PBMC RPS6KB1 phosphorylation levels relative to pre-treatment,[3]; [16],81.2%
same,mTOR signalling (decreased RPS6KB1 phosphorylation in PBMCs),[3]; four patients,inhibited in all four patients
same,reduction of PBMC EIF-4EBP1 phosphorylation levels relative to pre-treatment,"[4]; PA02, after seven days of treatment",85.6%
same,reduction of PBMC EIF-4EBP1 phosphorylation levels relative to pre-treatment,[4]; [14],38.5%
same,reduction of PBMC EIF-4EBP1 phosphorylation levels relative to pre-treatment,[4]; [15],96.6%
same,reduction of PBMC EIF-4EBP1 phosphorylation levels relative to pre-treatment,[4]; [16],34.4%
same,"Blood plasma level of monepantel, Average","[5]; 0.25 h, average of patients",0.010 ∞M
same,Blood plasma level of monepantel,"[5]; 0.25 h, individual patients",6.46 ng/ml and 0 ng/ml (2×) and 12.2 ng/ml
same,"Blood plasma level of monepantel, Average","[5]; 0.5 h, average of patients",0.051 ∞M
same,Blood plasma level of monepantel,"[5]; 0.5 h, individual patients",39.4 ng/mL and 16.1 ng/mL and 10.5 ng/mL and 31 ng/mL
same,"Blood plasma level of monepantel, Average","[5]; 1 h, average of patients",0.137 ∞M
same,Blood plasma level of monepantel,"[5]; 1 h, individual patients",110 ng/mL and 46.2 ng/mL and 42.1 ng/mL and 61 ng/mL
same,"Blood plasma level of monepantel, Average","[5]; 2 h, average of patients",0.298 ∞M
same,Blood plasma level of monepantel,"[5]; 2 h, individual patients",99.1 ng/mL and 171 ng/mL and 112 ng/mL
same,"Blood plasma level of monepantel, Average","[5]; 4 h, average of patients",0.353 ∞M
same,Blood plasma level of monepantel,"[5]; 4 h, individual patients",104 ng/mL and 234 ng/mL and 144 ng/mL and 187 ng/mL
same,"Blood plasma level of monepantel, Average","[5]; 8 h, average of patients",0.145 ∞M
same,Blood plasma level of monepantel,"[5]; 8 h, individual patients",62.1 ng/mL and 63.6 ng/mL and 108 ng/mL and 40.2 ng/mL
same,"Blood plasma level of monepantel, Average","[5]; 12 h, average of patients",0.064 ∞M
same,Blood plasma level of monepantel,"[5]; 12 h, individual patients",26.9 ng/mL and 24.1 ng/mL and 52.5 ng/mL and 18.6 ng/mL
same,"Blood plasma level of monepantel, Average","[5]; 24 h, average of patients",0.030 ∞M
same,Blood plasma level of monepantel,"[5]; 24 h, individual patients",13.7 ng/mL and 11.6 ng/mL and 21.8 ng/mL and 9.95 ng/mL
same,"Blood plasma level of monepantel, Average","[5]; pre-dose D3, average of patients",10.7 ng/ml and 0.023 ∞M
same,Blood plasma level of monepantel,"[5]; pre-dose D3, individual patients",16.4 ng/mL and 8.07 ng/mL and 9.99 ng/mL and 8.33 ng/mL
same,"Blood plasma level of monepantel, Average","[5]; pre-dose D4, average of patients",9.2 ng/ml and 0.019 ∞M
same,Blood plasma level of monepantel,"[5]; pre-dose D4, individual patients",14.7 ng/mL and 6.98 ng/mL and 8.65 ng/mL and 6.44 ng/mL
same,"Blood plasma level of monepantel, Average","[5]; pre-dose D5, average of patients",6.9 ng/ml and 0.015 ∞M
same,Blood plasma level of monepantel,"[5]; pre-dose D5, individual patients",9.94 ng/mL and 6.86 ng/mL and 5.72 ng/mL and 5.03 ng/mL
same,"Blood plasma level of monepantel, Average","[5]; pre-dose D6, average of patients",6.3 ng/ml and 0.013 ∞M
same,Blood plasma level of monepantel,"[5]; pre-dose D6, individual patients",9.99 ng/mL and 7.22 ng/mL and 4.62 ng/mL and 3.34 ng/mL
same,"Blood plasma level of monepantel, Average","[5]; pre-dose D7, average of patients",5.4 ng/ml and 0.011 ∞M
same,Blood plasma level of monepantel,"[5]; pre-dose D7, individual patients",7.42 ng/mL and 6.39 ng/mL and 4.58 ng/mL and 3.32 ng/mL
same,"Blood plasma level of monepantel, Average","[5]; pre-dose D14, average of patients",4.4 ng/ml and 0.009 ∞M
same,Blood plasma level of monepantel,"[5]; pre-dose D14, individual patients",4.85 ng/mL and 5.25 ng/mL and 3.23 ng/mL
same,"Blood plasma level of monepantel, Average","[5]; pre-dose D21, average of patients",3.8 ng/ml and 0.008 ∞M
same,Blood plasma level of monepantel,"[5]; pre-dose D21, individual patients",4.34 ng/mL and 3.16 ng/mL
same,"Blood plasma level of monepantel, Average","[5]; pre-dose D28, average of patients",3.8 ng/ml and 0.008 ∞M
same,Blood plasma level of monepantel,"[5]; pre-dose D28, individual patients",4.65 ng/mL and 2.96 ng/mL
same,concentration at 0.25 h,"[5]; plasma, oral, 5 mg/kg bw, 0.25 h, average of patients, read-out: Blood plasma level of monepantel, Average",4.7 ng/mL
same,concentration at 0.5 h,"[5]; plasma, oral, 5 mg/kg bw, 0.5 h, average of patients, read-out: Blood plasma level of monepantel, Average",24.3 ng/mL
same,concentration at 1 h,"[5]; plasma, oral, 5 mg/kg bw, 1 h, average of patients, read-out: Blood plasma level of monepantel, Average",64.8 ng/mL
same,concentration at 2 h,"[5]; plasma, oral, 5 mg/kg bw, 2 h, average of patients, read-out: Blood plasma level of monepantel, Average",141 ng/mL
same,concentration at 2 h,"[5]; plasma, oral, 5 mg/kg bw, 2 h, individual patients, read-out: Blood plasma level of monepantel",183 ng/mL
same,concentration at 4 h,"[5]; plasma, oral, 5 mg/kg bw, 4 h, average of patients, read-out: Blood plasma level of monepantel, Average",167 ng/mL
same,concentration at 8 h,"[5]; plasma, oral, 5 mg/kg bw, 8 h, average of patients, read-out: Blood plasma level of monepantel, Average",68.5 ng/mL
same,concentration at 12 h,"[5]; plasma, oral, 5 mg/kg bw, 12 h, average of patients, read-out: Blood plasma level of monepantel, Average",30.5 ng/mL
same,concentration at 24 h,"[5]; plasma, oral, 5 mg/kg bw, 24 h, average of patients, read-out: Blood plasma level of monepantel, Average",14.3 ng/mL
same,SARS-CoV-2 RNA concentrations in the media (qPCR),SARS-CoV-2 [6],significantly decrease
same,SARS-CoV-2 infectivity (TCID50) compared to no treatment,SARS-CoV-2 [7]; MPL 0.064 μM,significantly reduces SARS-CoV-2 infectivity
same,"SARS-CoV-2 infectivity (TCID50, repeat experiment) compared to no treatment",SARS-CoV-2 [7]; MPL 0.137 μM (greatest effect),significantly reduces SARS-CoV-2 infectivity
same,"SARS-CoV-2 infectivity (TCID50, repeat experiment)",SARS-CoV-2 [7]; MPL 0.411 μM and 0.046 μM,significantly reduced SARS-CoV-2 infectivity
same,SARS-CoV-2 infectivity (TCID50),"SARS-CoV-2 [7]; MPL 0.32, 1.6 and 8.0 μM",did not significantly reduce
same,SARS-CoV-2 infectivity (TCID50),SARS-CoV-2 [8],reduced SARS-CoV-2 infectivity
same,protection against cell death following infection with SARS-CoV-2,[9],protected VERO cell against cell death
same,effect upon SARS-CoV-2 infected VERO cells (LDH),VERO cells [10],no apparent effect
same,toxicity caused by SARS-CoV-2,VERO cells [10],appeared to increase toxicity
same,toxicity to Vero cells (LDH),VERO cells [10],significant toxicity
same,toxicity to uninfected VERO cells,VERO cells [10],some toxicity
same,SARS-CoV-2 toxicity,VERO cells [10]; African green monkey,does not apparently increase SARS-CoV-2 toxicity
same,IC50,VERO cells [11],~30 µM

# — patent US12213957B2, “Use of aminoacetonitrile compounds for the treatment of infection and disease” (PITNEY PHARMACEUTICALS PTY LIMITED, priority 2020, dated 2025)
